Each structure is given as a SMILES string.

One assay addresses AmpC β-lactamase (Escherichia coli, UniProt P00811). Put plainly: Controls for colloidal aggregation. As to conditions: AmpC β-lactamase counterscreen, particle formation by DLS.
In assay [1] the target is T1, KDM4C (Homo sapiens, UniProt Q9H3R0).
T1 sequence (Q9H3R0 1-1056): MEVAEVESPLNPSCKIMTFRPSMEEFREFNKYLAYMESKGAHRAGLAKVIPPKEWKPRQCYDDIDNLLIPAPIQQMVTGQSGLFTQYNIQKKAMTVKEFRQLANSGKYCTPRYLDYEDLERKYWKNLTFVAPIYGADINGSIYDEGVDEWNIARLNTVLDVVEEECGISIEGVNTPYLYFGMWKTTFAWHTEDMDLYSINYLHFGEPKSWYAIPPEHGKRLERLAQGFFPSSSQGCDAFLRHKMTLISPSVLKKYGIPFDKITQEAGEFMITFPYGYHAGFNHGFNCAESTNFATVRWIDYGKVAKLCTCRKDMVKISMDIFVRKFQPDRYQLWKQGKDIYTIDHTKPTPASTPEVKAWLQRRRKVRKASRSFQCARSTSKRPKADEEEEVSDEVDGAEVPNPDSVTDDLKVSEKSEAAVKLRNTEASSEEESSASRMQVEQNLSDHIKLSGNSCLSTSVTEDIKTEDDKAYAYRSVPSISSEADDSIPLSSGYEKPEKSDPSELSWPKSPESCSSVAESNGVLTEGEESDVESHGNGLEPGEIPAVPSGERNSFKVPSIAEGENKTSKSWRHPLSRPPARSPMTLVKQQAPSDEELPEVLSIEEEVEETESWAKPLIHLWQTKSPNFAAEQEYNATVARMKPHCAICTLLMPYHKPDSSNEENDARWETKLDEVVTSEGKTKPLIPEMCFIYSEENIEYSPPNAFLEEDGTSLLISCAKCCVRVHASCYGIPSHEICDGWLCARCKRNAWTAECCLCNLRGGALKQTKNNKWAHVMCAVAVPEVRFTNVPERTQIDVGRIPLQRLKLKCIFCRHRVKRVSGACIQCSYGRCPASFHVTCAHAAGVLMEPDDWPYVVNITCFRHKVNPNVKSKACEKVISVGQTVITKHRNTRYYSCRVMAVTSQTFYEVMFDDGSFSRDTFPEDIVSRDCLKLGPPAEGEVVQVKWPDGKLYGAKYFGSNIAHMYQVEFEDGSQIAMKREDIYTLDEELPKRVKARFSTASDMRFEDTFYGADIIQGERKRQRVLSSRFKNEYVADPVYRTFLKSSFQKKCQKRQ
The experiment in a line: Thermal shift assay. The class given is binding.

The target in a further assay is FIH (Homo sapiens, UniProt Q9NWT6). Put plainly: MALDI counterscreen, FIH. The class given is biochemical.
Chain of FIH (Q9NWT6 whole entry): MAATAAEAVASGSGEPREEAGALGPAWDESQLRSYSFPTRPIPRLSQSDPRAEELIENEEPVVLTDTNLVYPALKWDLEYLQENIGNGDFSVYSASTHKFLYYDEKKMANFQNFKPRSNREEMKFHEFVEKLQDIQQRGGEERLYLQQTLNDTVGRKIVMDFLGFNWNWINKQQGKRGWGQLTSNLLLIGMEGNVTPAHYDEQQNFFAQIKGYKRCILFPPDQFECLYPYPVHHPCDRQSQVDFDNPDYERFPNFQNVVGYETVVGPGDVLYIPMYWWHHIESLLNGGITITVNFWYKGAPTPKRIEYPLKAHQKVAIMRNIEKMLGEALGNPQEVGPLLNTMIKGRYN
The target in assay [2] is T1, KDM4C. The experiment in a line: MALDI assay, KDM4C. The class given is biochemical.
The target in the next assay is KDM5B (JARID1B, PLU-1) (Homo sapiens, UniProt Q9UGL1). The experiment in a line: AlphaScreen counterscreen, KDM5B. The class given is biochemical.
Chain of KDM5B (JARID1B, PLU-1) (Q9UGL1 whole entry, species assumed): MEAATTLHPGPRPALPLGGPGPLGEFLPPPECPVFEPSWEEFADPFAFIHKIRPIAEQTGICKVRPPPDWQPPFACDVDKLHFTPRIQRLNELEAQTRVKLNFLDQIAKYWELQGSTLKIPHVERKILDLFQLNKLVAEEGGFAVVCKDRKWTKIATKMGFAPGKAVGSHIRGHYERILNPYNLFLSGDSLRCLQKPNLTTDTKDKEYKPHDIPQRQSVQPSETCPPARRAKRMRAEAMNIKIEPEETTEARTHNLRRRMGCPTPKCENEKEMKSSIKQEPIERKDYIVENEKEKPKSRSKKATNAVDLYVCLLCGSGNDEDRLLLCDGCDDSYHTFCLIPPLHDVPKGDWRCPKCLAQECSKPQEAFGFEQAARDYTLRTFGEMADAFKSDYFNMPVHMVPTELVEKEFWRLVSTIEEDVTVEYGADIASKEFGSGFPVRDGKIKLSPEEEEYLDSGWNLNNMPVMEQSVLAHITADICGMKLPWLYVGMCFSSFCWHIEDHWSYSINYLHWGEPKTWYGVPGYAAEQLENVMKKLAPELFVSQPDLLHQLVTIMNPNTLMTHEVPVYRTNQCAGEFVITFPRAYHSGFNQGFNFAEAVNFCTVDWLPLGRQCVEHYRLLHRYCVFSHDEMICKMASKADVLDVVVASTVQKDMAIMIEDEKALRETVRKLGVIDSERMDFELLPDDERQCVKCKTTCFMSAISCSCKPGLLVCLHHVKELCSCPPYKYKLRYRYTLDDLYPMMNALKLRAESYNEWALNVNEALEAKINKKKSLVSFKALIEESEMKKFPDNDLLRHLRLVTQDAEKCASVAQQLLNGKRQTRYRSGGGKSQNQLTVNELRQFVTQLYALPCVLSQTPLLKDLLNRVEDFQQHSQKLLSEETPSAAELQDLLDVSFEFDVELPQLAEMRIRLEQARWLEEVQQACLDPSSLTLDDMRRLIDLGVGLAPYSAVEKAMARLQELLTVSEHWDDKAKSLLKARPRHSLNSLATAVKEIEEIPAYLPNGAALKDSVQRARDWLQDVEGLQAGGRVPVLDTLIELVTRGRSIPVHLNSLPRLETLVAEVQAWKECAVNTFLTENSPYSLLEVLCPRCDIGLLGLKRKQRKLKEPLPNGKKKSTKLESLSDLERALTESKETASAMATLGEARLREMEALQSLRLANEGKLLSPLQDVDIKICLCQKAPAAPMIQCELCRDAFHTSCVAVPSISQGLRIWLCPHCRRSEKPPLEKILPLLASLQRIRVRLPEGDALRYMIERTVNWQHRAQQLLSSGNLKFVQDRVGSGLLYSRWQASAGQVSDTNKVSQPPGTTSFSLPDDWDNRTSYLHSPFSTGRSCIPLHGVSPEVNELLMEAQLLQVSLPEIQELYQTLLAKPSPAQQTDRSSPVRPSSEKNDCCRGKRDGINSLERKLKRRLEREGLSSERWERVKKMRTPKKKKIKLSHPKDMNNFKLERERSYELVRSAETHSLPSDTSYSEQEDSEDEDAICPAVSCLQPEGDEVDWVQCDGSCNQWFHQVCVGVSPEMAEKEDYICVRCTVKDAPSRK
The target in assay [3] is T2, KDM4C (Homo sapiens, UniProt Q9H3R0).
T2 sequence (Q9H3R0 1-352): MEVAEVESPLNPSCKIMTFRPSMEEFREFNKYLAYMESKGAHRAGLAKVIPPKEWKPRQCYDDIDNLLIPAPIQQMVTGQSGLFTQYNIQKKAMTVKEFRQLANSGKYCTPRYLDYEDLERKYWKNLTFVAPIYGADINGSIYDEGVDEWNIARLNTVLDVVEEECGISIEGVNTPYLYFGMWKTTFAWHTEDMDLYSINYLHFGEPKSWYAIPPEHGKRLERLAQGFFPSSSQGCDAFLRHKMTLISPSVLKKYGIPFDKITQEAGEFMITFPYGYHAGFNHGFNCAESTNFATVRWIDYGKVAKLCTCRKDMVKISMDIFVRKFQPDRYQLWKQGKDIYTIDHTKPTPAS
Put plainly: KDM4C time-resolved FRET. The class given is biochemical.

The target in a further assay is KDM6B (JMJD3) (Homo sapiens, UniProt O15054). The experiment in a line: AlphaScreen counterscreen, KDM6B. The class given is biochemical.
Chain of KDM6B (JMJD3) (O15054 whole entry, species assumed): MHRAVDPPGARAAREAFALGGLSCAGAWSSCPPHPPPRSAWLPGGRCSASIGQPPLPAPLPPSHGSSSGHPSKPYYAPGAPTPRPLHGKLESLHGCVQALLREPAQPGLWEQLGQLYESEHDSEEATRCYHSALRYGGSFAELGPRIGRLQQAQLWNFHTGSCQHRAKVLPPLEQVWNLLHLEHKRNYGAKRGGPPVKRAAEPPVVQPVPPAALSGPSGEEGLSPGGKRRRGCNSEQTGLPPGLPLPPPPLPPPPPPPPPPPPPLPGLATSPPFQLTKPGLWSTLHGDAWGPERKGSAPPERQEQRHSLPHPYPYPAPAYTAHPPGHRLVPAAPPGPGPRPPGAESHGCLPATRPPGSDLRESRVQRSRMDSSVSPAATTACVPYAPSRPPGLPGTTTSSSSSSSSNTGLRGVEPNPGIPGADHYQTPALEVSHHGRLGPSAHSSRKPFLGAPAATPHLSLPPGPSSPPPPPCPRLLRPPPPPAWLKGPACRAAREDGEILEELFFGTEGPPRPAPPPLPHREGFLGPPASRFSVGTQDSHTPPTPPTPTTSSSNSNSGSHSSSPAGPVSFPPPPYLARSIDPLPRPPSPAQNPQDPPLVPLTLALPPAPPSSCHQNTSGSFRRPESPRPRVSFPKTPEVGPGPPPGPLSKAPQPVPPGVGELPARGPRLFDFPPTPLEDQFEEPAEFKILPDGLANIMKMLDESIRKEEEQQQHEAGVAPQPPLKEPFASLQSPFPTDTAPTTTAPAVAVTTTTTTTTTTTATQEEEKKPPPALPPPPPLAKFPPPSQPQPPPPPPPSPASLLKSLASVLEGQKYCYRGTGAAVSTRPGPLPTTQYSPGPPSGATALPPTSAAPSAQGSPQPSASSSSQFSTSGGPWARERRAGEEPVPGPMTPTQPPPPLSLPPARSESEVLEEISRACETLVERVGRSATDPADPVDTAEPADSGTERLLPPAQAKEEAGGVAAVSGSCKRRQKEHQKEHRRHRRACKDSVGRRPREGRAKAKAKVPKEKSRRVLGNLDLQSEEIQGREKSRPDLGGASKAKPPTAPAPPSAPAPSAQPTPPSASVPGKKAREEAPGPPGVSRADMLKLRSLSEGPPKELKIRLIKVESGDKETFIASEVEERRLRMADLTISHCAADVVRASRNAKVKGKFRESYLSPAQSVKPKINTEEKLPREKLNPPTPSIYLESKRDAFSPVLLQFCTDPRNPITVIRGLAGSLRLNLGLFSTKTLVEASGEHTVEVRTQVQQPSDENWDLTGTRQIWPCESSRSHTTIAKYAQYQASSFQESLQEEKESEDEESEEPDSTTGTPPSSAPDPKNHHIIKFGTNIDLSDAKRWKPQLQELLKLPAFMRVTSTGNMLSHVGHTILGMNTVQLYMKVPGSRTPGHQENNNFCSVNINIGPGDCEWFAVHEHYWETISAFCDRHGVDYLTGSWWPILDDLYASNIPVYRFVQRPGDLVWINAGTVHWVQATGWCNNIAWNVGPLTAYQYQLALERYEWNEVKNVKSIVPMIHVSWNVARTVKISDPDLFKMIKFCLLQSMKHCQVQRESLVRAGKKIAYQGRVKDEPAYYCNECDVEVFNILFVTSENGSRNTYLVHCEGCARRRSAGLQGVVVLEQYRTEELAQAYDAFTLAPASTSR
A further assay addresses T3, KDM2A (FBXL11) (Homo sapiens, UniProt Q9Y2K7).
T3 sequence (Q9Y2K7 1-1162): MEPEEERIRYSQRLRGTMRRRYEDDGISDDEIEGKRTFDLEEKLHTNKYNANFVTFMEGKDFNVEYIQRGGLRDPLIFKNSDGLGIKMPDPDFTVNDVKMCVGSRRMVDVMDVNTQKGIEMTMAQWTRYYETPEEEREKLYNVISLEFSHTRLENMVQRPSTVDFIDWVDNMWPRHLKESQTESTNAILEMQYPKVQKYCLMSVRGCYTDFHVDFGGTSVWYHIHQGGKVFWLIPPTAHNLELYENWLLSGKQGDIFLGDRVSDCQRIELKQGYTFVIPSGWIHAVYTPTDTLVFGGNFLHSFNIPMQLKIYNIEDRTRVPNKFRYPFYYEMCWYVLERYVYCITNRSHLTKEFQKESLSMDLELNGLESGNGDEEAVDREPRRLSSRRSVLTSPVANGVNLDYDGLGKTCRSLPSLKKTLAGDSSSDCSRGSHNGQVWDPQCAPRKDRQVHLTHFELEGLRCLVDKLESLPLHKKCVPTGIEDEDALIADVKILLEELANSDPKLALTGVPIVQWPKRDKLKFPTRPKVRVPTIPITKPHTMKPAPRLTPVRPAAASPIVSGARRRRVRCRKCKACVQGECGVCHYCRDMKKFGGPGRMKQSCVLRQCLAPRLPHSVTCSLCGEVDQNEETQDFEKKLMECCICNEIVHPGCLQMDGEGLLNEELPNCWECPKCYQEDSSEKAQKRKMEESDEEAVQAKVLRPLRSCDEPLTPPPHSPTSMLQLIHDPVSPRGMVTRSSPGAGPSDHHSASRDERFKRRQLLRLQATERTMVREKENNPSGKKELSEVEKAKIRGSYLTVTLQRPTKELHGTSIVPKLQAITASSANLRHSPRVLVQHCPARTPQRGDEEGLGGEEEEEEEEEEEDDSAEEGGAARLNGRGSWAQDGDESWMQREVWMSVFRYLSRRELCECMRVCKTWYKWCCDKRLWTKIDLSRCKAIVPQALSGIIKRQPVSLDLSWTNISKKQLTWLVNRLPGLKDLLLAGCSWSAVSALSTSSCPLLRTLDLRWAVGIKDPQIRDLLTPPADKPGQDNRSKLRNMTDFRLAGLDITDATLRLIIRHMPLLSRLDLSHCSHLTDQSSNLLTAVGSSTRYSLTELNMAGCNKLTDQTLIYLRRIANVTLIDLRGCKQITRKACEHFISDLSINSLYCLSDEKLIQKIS
The experiment in a line: AlphaScreen counterscreen, KDM2A. Type of assay: biochemical.

Chain of AmpC β-lactamase (P00811 20-377): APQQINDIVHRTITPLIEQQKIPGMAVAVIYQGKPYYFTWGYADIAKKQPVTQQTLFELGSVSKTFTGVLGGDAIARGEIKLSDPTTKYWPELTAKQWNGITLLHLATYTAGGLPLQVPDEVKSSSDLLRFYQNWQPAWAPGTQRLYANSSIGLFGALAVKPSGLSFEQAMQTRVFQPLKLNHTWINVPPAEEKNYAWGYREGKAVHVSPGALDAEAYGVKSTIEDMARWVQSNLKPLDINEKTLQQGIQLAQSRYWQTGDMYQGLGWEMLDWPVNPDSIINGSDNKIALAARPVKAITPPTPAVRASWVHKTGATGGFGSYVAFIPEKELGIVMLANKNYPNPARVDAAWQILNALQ

As to `Cn1nccc1CNc1ccc(O)c(C(=O)O)c1` [Compound 4], the “nonspecific inhibition / colloidal aggregation” value at AmpC β-lactamase is “neither of the two inhibitors acted as aggregators in a relevant concentration range”.

For `COCC(=O)Nc1ccc(O)c(C(=O)O)c1` [Compound 5], the “nonspecific inhibition / colloidal aggregation” value on AmpC β-lactamase is “neither of the two inhibitors acted as aggregators in a relevant concentration range”.

On to `Cc1ccccc1CNc1ccc(O)c(C(=O)O)c1` [Compound 20], for which the “nonspecific inhibition / colloidal aggregation” value at AmpC β-lactamase was “did not exhibit nonspecific inhibition”. For the same compound, the “stabilization of the enzyme in thermal shift assays” value on KDM4C [1] was “stabilized the enzyme in thermal shift assays”.

As for `Nc1ccc(O)c(-c2cc(C(=O)O)ccn2)c1` [Compound 30, 2-(5-Amino-2-hydroxyphenyl)-isonicotinic Acid], the IC50 stood at 828 µM at FIH and 135 µM against KDM4C [2]. For the same compound, the “fold selectivity over KDM4C, FIH” value on FIH (MALDI, 100 μM α-KG) came to 6 fold.

For `O=C(O)c1ccnc(-c2cc(NC(=O)c3ccc(O)cc3)ccc2O)c1` [Compound 35], the “fold selectivity over KDM4C, KDM5B” value on KDM5B (JARID1B, PLU-1) is given as “Ml”. The “fold selectivity over KDM4C, FIH” value on FIH (MALDI, 100 μM α-KG) was over 85 fold.

On to `COc1cccc(CC(=O)Nc2ccc(O)c(-c3cc(C(=O)O)ccn3)c2)c1` [Compound 40], for which the “fold selectivity over KDM4C, FIH” value at FIH (MALDI, 100 μM α-KG) was over 68 fold.

Consider `COCC(=O)Nc1ccc(O)c(-c2cc(C(=O)O)ccn2)c1` [Compound 42], for which the “fold selectivity over KDM4C, FIH” value at FIH (MALDI, 100 μM α-KG) is listed as over 11 fold. The “fold improvement in potency over the parent 5-aminosalicylate fragment” value on KDM4C [3] (TR-FRET IC50 at 2 μM α-KG, 42 vs 5, 21 vs 4) is about 700 fold.

As for `CC(=O)Nc1ccc(O)c(-c2cc(C(=O)O)ccn2)c1` [Compound 44], the “fold selectivity over KDM4C, KDM6B” value at KDM6B (JMJD3) is on record as over 6 fold. Further, at FIH (MALDI, 100 μM α-KG), the “fold selectivity over KDM4C, FIH” value was over 8 fold. Besides, the “IC50 FIH, MALDI Assays” value against FIH (MALDI, 100 μM α-KG, >500 = no inhibition at 500 μM inhibitor) is reported as “no inhibition”. For the same compound, at KDM2A (FBXL11), the “fold selectivity over KDM4C, KDM2A” value was over 6 fold.

As to `CC(=O)Nc1ccc(O)c(C(=O)O)c1` [N-acetyl-5-aminosalicylic acid], on KDM4C [3] (KDM4C, TR-FRET, 2 μM α-KG), the “IC50(μM) 2μM αKG” value is listed as “no inhibition”.
